Laboratory results: patent US20240294471A1, “ROS-RESPONSIVE CAPTOPRIL-CINNAMALDEHYDE PRODRUGS AND COMPOSITIONS AND METHODS THEREOF” (The University of Hong Kong, priority 2021, published 2024)

Tests used:
[1] = test system: LPS-stimulated Raw264.7 cells; experiment: Protein levels of TNF-α, IL-1β and IL-6 by ELISA; format: cell-based; settings: supernatant, 24 h, dose dependent, FIGS. 3A-3C
Method: The protein levels of TNF-α, IL-1β and IL-6 were determined by ELISA. Briefly, Raw 264.7 cells were seeded in 24-well plates. After a 24 h incubation, prodrugs were added to the cells at different concentrations and incubated for 1 h, and then the cells were treated with or without LPS (10 μg/mL) for another 24 h. The supernatants were collected for determination of protein levels according to the ELISA kit's instruction. Three replicate wells were used in this experiment.

[2] = test system: LPS-stimulated Raw264.7 cells; experiment: mRNA levels of proinflammatory cytokines by qRT-PCR; format: cell-based; settings: 24 h, dose dependent, FIGS. 4A-4C
Method: […] Briefly, Raw 264.7 cells were seeded in 12-well plates. After a 24 h incubation, prodrugs were added to the cells at different concentrations and incubated for 1 h, and then the cells were treated with or without LPS (10 μg/mL) for another 24 h. qRT-PCR experiments were measured according to the manufacturer's instruction. Three replicate wells were used in this experiment.

[3] = test system: LPS-stimulated Raw 264.7 cells; experiment: NO generation (nitrite in culture supernatant, Griess reagent); format: cell-based; settings: Raw264.7 cells, LPS 10 μg/mL, 24 h, dose-dependent, FIG. 2
Method: Nitrite levels, an index of cellular NO production, in culture supernatants of Raw 264.7 cells were determined using a modified Griess reagent. Briefly, Raw 264.7 cells were seeded in 24-well plates. After a 24 h incubation, prodrugs were added to the cells at different concentrations and incubated for 1 h, and then the cells were treated with or without LPS (10 μg/mL) for another 24 h. The supernatant was mixed with an equal volume of Griess reagent and incubated at room temperature for 15 min. The absorbance at 540 nm was measured. Three replicate wells were used in this experiment.

Raw 264.7 cells = experiment: Cytotoxicity test (MTT assay); format: cell-based; settings: Raw264.7 cells, 24 h, with or without LPS (10 μg/mL), tested concentration range, FIG. 1
Method: The effect of the prodrug on the viability of Raw 264.7 cells was determined using the MTT assay. Briefly, Raw 264.7 cells were seeded in 24-well plates. After a 24 h incubation, prodrugs were added to the cells at different concentrations and incubated for 1 h, and then, the cells were treated with or without LPS (10 μg/mL) for another 24 h. Next, 50 μL of MTT solution (5 mg/mL) were added to each well and the cells were incubated for 3 h at 37° C. Then, 1 mL of DMSO were added to dissolve the MTT-formazan crystal. The absorbance at 570 nm and 630 nm were measured. Three replicate wells were used in this experiment.

[4] = ROS-responsiveness: HPLC monitoring of CAPT-CA degradation in the presence of H2O2; format: physicochemical; settings: CAPT-CA 160 μM, H2O2 40 mM
Method: HPLC spectra of CAPT, CA, CAPT-CA prodrug, and the degradation of CAPT-CA (160 μM) in the presence of H2O2 (40 mM) for different times were obtained. A C18 column was used. The mobile phase A was acetonitrile containing 0.1% TFA and mobile phase B was water containing 0.1% TFA. The elution procedure was shown as below: 0-5 min: 98% B→98% B; 5-15 min: 98% B→40% B; 15-17 min: 40% B→40% B. The flow rate was 1.5 mL/min. The detection wavelength was 220 nm.
To evaluate the ROS-responsiveness of CAPT-CA, high performance liquid chromatography (HPLC) has been employed to monitor the release of CAPT and CA after incubation of CAPT-CA with a ROS reagent (hydrogen peroxide, H2O2). The retention time of free CAPT, free CA and CAPT-CA was at 10.138 min, 13.275 min, 14.283 min, respectively.

## CC(CSC(/C=C/c1ccccc1)SCC(C)C(=O)N1CCCC1C(=O)O)C(=O)N1CCCC1C(=O)O (stereo not drawn) [CAPT-CA]
[1]
  protein levels of the cytokines (TNF-α, IL-1β, IL-6): significantly down-regulates
[2]
  mRNA levels of the cytokines (TNF-α, IL-6, IL-1β): significantly down-regulates
[3]
  NO generation resulting from LPS stimulation: significantly suppressed
Raw 264.7 cells
  cytotoxicity of the prodrug: minimal
[4]; 4 h
  prodrug peak in HPLC after incubation with H2O2 (release of free CA and CAPT): prodrug peak decreases
[4]; 22 h
  prodrug peak in HPLC after incubation with H2O2: almost disappeared
